Among the data in ChEMBL document CHEMBL4619773, “Chemoreactive-Inspired Discovery of Influenza A Virus Dual Inhibitor to Block Hemagglutinin-Mediated Adsorption and Membrane Fusion” (J Med Chem, 2020) are IC50 values, retold here.

Each structure is given as a SMILES string. Bounds are passed on as bounds.

In the experiment the test system is Influenza A virus. Format: functional, organism-based.

In the case of `CC(=O)c1cc(C)c(O)c(Cc2[nH]c3ccccc3c2Cc2c(O)c(C)cc(C(C)=O)c2O)c1O`, the IC50 (usually the concentration at which inhibition is half-maximal) is more than 42 µg/mL.
